Test results reported in PubChem BioAssay AID276 (DTP/NCI, 2004).
Where “and” joins values, the source holds several entries; their conditions need not be identical. Equal entries are not always repeated. Toxic doses and inconclusive results are not listed. How the source made its calls: active means survival T/C of 150% or more; inactive means T/C below 125% in these data.

Tested on: B6C3F1 mice, Lewis lung carcinoma iv, survival T/C
Assay: NCI In Vivo Anticancer Drug Screen. Data for tumor model Lewis Lung Carcinoma (intravenous) in B6C3F1 mice
Settings: endpoint: median survival time, schedule: Q01DX009 (ip), higher = longer survival
In short: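 Transplantable tumor in mice; compound treated vs vehicle controls; read-out survival; value = treated/control (T/C).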

[1] = dose: 3.12 mg/kg/injection, vehicle: saline with Tween-80
[2] = dose: 6.25 mg/kg/injection, vehicle: saline with Tween-80
[3] = dose: 12.5 mg/kg/injection, vehicle: saline with Tween-80
[4] = dose: 6.25 mg/kg/injection, vehicle: Klucel (hydroxypropylcellulose) (HPC)
[5] = dose: 12.5 mg/kg/injection, vehicle: Klucel (hydroxypropylcellulose) (HPC)
[6] = dose: 25.0 mg/kg/injection, vehicle: Klucel (hydroxypropylcellulose) (HPC)
[7] = dose: 25.0 mg/kg/injection, vehicle: saline with Tween-80
[8] = dose: 50.0 mg/kg/injection, vehicle: saline with Tween-80
[9] = dose: 100.0 mg/kg/injection, vehicle: saline with Tween-80
[10] = dose: 200.0 mg/kg/injection, vehicle: saline with Tween-80
[11] = dose: 400.0 mg/kg/injection, vehicle: saline with Tween-80
[12] = dose: 50.0 mg/kg/injection, vehicle: Klucel (hydroxypropylcellulose) (HPC)
[13] = dose: 100.0 mg/kg/injection, vehicle: Klucel (hydroxypropylcellulose) (HPC)

Measured: T/C

CN(C)c1ccc2c(NCCCCCCNc3ccnc4cc(N(C)C)ccc34)ccnc2c1
inactive: dose: 1.56 mg/kg/injection, vehicle: distilled water + Tween-80 + alcohol 97 % of control | dose: 3.12 mg/kg/injection, vehicle: distilled water + Tween-80 + alcohol 106 % of control | dose: 6.25 mg/kg/injection, vehicle: distilled water + Tween-80 + alcohol 111 % of control | dose: 12.5 mg/kg/injection, vehicle: distilled water + Tween-80 + alcohol 97 % of control | dose: 25.0 mg/kg/injection, vehicle: distilled water + Tween-80 + alcohol 116 % of control

Nc1n[n+](-c2ccccc2)no1
inactive: dose: 3.13 mg/kg/injection, vehicle: water 108 % of control | dose: 6.25 mg/kg/injection, vehicle: water 100 % of control | dose: 12.5 mg/kg/injection, vehicle: water 113 % of control | dose: 25.0 mg/kg/injection, vehicle: water 114 % of control

CCc1nc(N)nc(N)c1-c1ccc(Cl)c([N+](=O)[O-])c1
inactive: dose: 1.56 mg/kg/injection, vehicle: saline with Tween-80 104 % of control | [1] 105 % of control | [2] 104 % of control | [3] 105 % of control

COc1ccc2[nH]c3ccc4cc[n+](CCN5CCC(C6CCN(CC[n+]7ccc8ccc9[nH]c%10ccc(OC)cc%10c9c8c7)CC6)CC5)cc4c3c2c1
inactive: [4] 106 % of control | [5] 91 % of control and 103 % of control | [6] 99 % of control

CCOC(=O)c1ccc(NN=NCCF)cc1
inactive: dose: 3.0 mg/kg/injection, vehicle: distilled water + alcohol 98 % of control | dose: 3.12 mg/kg/injection, vehicle: distilled water + Tween-80 104 % of control | dose: 6.0 mg/kg/injection, vehicle: distilled water + alcohol 96 % of control | dose: 6.25 mg/kg/injection, vehicle: distilled water + Tween-80 113 % of control | dose: 12.5 mg/kg/injection, vehicle: distilled water + Tween-80 98 % of control | dose: 12.5 mg/kg/injection, vehicle: distilled water + alcohol 103 % of control | dose: 25.0 mg/kg/injection, vehicle: distilled water + Tween-80 113 % of control | dose: 25.0 mg/kg/injection, vehicle: distilled water + alcohol 101 % of control | dose: 50.0 mg/kg/injection, vehicle: distilled water + alcohol 98 % of control | dose: 100.0 mg/kg/injection, vehicle: distilled water + alcohol 98 % of control

OCC(O)C(O)C(O)C(O)CO (centres undefined)
inactive: dose: 75.0 mg/kg/injection, vehicle: saline 100 % of control | dose: 150.0 mg/kg/injection, vehicle: saline 96 % of control | dose: 300.0 mg/kg/injection, vehicle: saline 92 % of control | dose: 600.0 mg/kg/injection, vehicle: saline 95 % of control | dose: 1200.0 mg/kg/injection, vehicle: saline 98 % of control

Nc1nc(-c2ccccc2)c(Br)c(=O)[nH]1
inactive: [7] 114 % of control | [8] 107 % of control | [9] 110 % of control | [10] 92 % of control and 121 % of control | [11] 100 % of control and 118 % of control | dose: 800.0 mg/kg/injection, vehicle: saline with Tween-80 100 % of control

COc1ccc2[nH]c3c(c2c1)CCNC3CC(C)CCC=C(C)C (centres undefined)
inactive: [4] 98 % of control | [5] 98 % of control | [6] 92 % of control | [12] 103 % of control | [13] 105 % of control

[Cl][Pt+2][Cl].[NH-]C1CCC1.[NH2-]
inactive: dose: 0.75 mg/kg/injection, vehicle: saline 101 % of control | dose: 3.0 mg/kg/injection, vehicle: saline 111 % of control | dose: 6.0 mg/kg/injection, vehicle: saline 124 % of control

CC[C@@]1(O)C(=O)OCc2c1cc1n(c2=O)Cc2cc3ccccc3nc2-1
inactive: dose: 0.37 mg/kg/injection, vehicle: saline with Tween-80 102 % of control | dose: 0.75 mg/kg/injection, vehicle: saline with Tween-80 105 % of control | dose: 1.5 mg/kg/injection, vehicle: saline with Tween-80 122 % of control

C=CC(C)(C)n1cc(C2=C(O)C(=O)C(c3cn(C(C)(C)C=C)c4ccccc34)=C(O)C2=O)c2ccccc21
inactive: dose: 1.25 mg/kg/injection, vehicle: Klucel (hydroxypropylcellulose) (HPC) 105 % of control | dose: 2.5 mg/kg/injection, vehicle: Klucel (hydroxypropylcellulose) (HPC) 110 % of control | dose: 5.0 mg/kg/injection, vehicle: Klucel (hydroxypropylcellulose) (HPC) 106 % of control | dose: 10.0 mg/kg/injection, vehicle: Klucel (hydroxypropylcellulose) (HPC) 100 % of control | dose: 20.0 mg/kg/injection, vehicle: Klucel (hydroxypropylcellulose) (HPC) 114 % of control | dose: 40.0 mg/kg/injection, vehicle: Klucel (hydroxypropylcellulose) (HPC) 119 % of control

ClC1=C(Cl)C(Cl)=C(Cl)C1=Cc1ccccc1
inactive: [1] 94 % of control and 101 % of control | [2] 98 % of control and 108 % of control | [3] 98 % of control | [7] 97 % of control | [8] 105 % of control

CCOC(OCC)C(=O)OCC(=O)[C@]1(O)Cc2c(O)c3c(c(O)c2[C@@H](OC2CC(N)C(O)C(C)O2)C1)C(=O)c1c(OC)cccc1C3=O (some centres undefined)
inactive: dose: 0.13 mg/kg/injection, vehicle: water 113 % of control | dose: 0.5 mg/kg/injection, vehicle: water 116 % of control | dose: 1.0 mg/kg/injection, vehicle: water 112 % of control | dose: 2.0 mg/kg/injection, vehicle: water 120 % of control

O=C1[C@H]2CCC[C@H]2[C@H]2CCC[C@@H]12
inactive: [2] 95 % of control | [3] 104 % of control | [7] 98 % of control | [8] 95 % of control | [9] 91 % of control | [10] 102 % of control

CN(C)C(=O)SC1=C(c2c(Cl)cccc2Cl)C(=O)c2ccccc21
inactive: [6] 102 % of control | [12] 110 % of control | [13] 105 % of control | dose: 200.0 mg/kg/injection, vehicle: Klucel (hydroxypropylcellulose) (HPC) 108 % of control

BrC[P+](CBr)(CBr)CBr
inactive: [3] 93 % of control | [7] 102 % of control | [8] 97 % of control | [9] 97 % of control | [10] 89 % of control | [11] 95 % of control
